Data set [1] deals with PAE. Description: Apoptosis in PAE. It is filed as cell-based, porcine.
The subject of data set [2] is PAE cells. Description: Growth dose response (IC50) in PAE. It is filed as cell-based, porcine. Particulars: read-out: Growth IC50 (M) in PAE. The text has this:
FIG. 6: Dose response curves were constructed for all the SMs of interest using PAE cells. Data were fitted to non-linear sigmoid curves using GraphPad Prism (GraphPad Software, Inc., La Jolla, Calif.).
Dose response curves were constructed for all the SM of interest using PAE cells. Data were fitted to non-linear sigmoid curves using GraphPad Prism (GraphPad software, Inc.).

Data set [3] concerns endothelial cells. Description: Primary screening: cell-based growth HTS and tube formation HTS (bioactivity class).
Protocol: All assays were performed in clear bottom black 96-well plates. The plates were always arranged to include a column for negative controls (column 1), a column for positive controls (column 12), and 10 columns for evaluation of 80 compounds. In order to increase stringency and avoid false positives in the HTS assays, all compounds were tested at a low final concentration of 1 μM.
In summary, 1,000 cells/well were seeded in the 96-well plates described above. Cells in columns 2-12 were seeded in 10% FBS and cells in column 1 (negative control) were seeded in 0% FBS. Small molecules (80 per plate) were added in columns 2-11 at a final concentration of 1 μM (both positive and negative controls were exposed to the same percentage of DMSO in wells containing test compounds). The fluorescence emitted by every well was measured spectrophotometrically (Infinite M200, TECAN®, Mannedorf, Switzerland) every 24 hours for 5-7 days.
In summary, 20,000 cells/well were seeded on top of 50 μl of pre-gelled GELTREX® gel matrix (Invitrogen, Carlsbad, Calif.). All cells were seeded in 10% FBS. […] Small molecules (80 per plate) were added to columns 2-11 at a final concentration of 1 μM (both positive and negative controls were exposed to the same percentage of DMSO in wells containing test compounds). Plates were incubated for 5-7 hours and automatically imaged with the help of an epifluorescence microscope (Axiovert® 200M, Zeiss) equipped with a motorized stage and AxioVision® (Zeiss) software.
For hit detection, a stringent threshold (sigma 3.5) was applied to avoid false positives.
Data set [4] can be described thus: in vitro. The following applies: pig.
In data set [5] the target is KDR(VEGFR2) (Homo sapiens, UniProt P35968). Description: SelectScreen kinase activity profiling, KDR(VEGFR2). It is filed as biochemical. The following applies: VEGFR2 receptor. The text has this:
To characterize the RTK inhibitory activity of the antiangiogenic SMs described herein, 36 compounds were chosen and screened using Invitrogen's SelectScreen® kinase activity profiling service (described on-line at tools.invitrogen.com/content.cfm?pageid=10413#selection). VEGFR1 and FGFR2 RTK inhibitory activities were studied. […] Overall, a small minority of the SMs tested had any substantial kinase inhibitory activity. This observation supports a mechanism of antiangiogenic action other than RTK inhibition for most of the SMs described herein.

Structures can show the parent of a compound that is named as a salt. Where two headings read alike, the source gives them in different places.

By IC50 is commonly meant the point on the concentration scale where inhibition reaches its midpoint.

Chain of KDR(VEGFR2) (P35968 20-1356): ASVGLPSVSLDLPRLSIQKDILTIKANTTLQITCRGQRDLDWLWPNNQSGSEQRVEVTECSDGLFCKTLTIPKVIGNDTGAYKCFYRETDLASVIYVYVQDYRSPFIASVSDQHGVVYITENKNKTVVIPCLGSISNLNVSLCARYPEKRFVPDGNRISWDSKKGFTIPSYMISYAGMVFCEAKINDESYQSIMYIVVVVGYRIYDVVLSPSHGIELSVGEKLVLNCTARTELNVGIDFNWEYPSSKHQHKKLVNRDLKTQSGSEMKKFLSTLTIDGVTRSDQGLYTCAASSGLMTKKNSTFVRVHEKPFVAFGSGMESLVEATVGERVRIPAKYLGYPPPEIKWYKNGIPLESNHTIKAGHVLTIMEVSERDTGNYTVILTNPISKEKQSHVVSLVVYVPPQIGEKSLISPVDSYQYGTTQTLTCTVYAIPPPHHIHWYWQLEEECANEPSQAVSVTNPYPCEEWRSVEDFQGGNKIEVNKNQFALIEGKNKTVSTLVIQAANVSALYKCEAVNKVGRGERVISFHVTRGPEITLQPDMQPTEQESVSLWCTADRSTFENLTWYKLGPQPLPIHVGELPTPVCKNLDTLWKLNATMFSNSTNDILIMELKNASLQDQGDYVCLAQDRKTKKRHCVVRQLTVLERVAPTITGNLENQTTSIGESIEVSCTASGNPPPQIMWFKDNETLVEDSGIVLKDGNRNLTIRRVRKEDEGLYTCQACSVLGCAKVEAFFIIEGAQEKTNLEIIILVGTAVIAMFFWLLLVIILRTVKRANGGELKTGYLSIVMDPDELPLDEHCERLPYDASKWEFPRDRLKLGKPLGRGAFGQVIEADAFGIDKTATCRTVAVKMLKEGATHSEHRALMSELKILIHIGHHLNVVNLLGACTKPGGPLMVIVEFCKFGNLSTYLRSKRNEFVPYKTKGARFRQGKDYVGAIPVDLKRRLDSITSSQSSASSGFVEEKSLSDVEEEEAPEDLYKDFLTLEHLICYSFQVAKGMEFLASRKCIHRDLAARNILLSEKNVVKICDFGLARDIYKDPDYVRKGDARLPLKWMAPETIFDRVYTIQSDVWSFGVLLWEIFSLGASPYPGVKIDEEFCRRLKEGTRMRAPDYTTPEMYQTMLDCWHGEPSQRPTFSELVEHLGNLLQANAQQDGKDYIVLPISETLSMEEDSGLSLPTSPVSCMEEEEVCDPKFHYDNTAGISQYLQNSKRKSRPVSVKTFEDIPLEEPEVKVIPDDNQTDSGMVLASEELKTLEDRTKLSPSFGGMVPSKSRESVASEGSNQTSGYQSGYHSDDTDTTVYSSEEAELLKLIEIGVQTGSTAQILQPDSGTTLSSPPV

Consider “3-[(2,4- dimethylphenyl)carbamoyl]naphthalen-2- olate; N-(2,4-dimethylphenyl)-3- hydroxynaphthalene-2-carboxamide; nickel(2+) [Compound 37]”, for which the “Apoptosis PAE (RFU)” value in data set [1] was 2.037 RFU. In addition, in data set [2], the IC50 was greater than 1e-06 M. The compound also displayed a Bioactivity in data set [3] of 1.
For `Cc1c(Cl)cc(C(C)(C)C)c(O)c1Cc1c(C)c(Cl)cc(C(C)(C)C)c1O` [Compound 17, 6-tert-butyl-2-[(3-tert-butyl-5-chloro-2-hydroxy-6-methylphenyl)methyl]-4-chloro-3-methylphenol], in data set [2] (Sus scrofa, PAE cells), the half-maximal inhibitory concentration (IC50) worked out at 3.98e-10 M. The cytotoxicity in data set [4] worked out at 7.34%.
The matching figures for `C[C@H]1CCC/C=C/[C@@H]2C[C@H](OC(=O)CN(C)C)C[C@H]2[C@H](O)/C=C/C(=O)O1` [Compound 18, [(1R,2R,3E,7S,11E,13S,15S)-2-hydroxy-7-methyl-5-oxo-6-oxabicyclo[11.3.0]hexadeca-3,11-dien-15-yl]2-(dimethylamino)acetate]: 4.64e-10 M and 7.6%.
In the case of `Cc1cc(O)c(C(C)C)cc1C1(c2cc(C(C)C)c(O)cc2C)OC(=O)c2ccccc21` [Compound 19, 3,3-bis(4-hydroxy-2-methyl-5-propan-2-ylphenyl)-2-benzofuran-1-one], in data set [2] (Sus scrofa, PAE cells), the concentration for half-maximal inhibition (IC50) came to 9.63e-10 M. This compound also displayed a cytotoxicity in data set [4] of 6.56%.
As for `CC1(C)N=C(N)N=C(N)N1c1cccc(CSc2ccccc2)c1` [Compound 21, 6,6-dimethyl-1-[3-(phenylsulfanylmethyl)-phenyl]-1,3,5-triazine-2,4-diamine hydrochloride], the IC50 in data set [2] (Sus scrofa, PAE cells) turned out to be 2.29e-11 M. Moreover, the cytotoxicity in data set [4] came to 6.57%.
For the compound `Cc1cc(OCc2nc(N)nc(N)c2-c2ccc(Cl)c(Cl)c2)ccc1[N+](=O)[O-]` [Compound 22, 5-(3,4-dichlorophenyl)-6-[(3-methyl-4-nitrophenoxy)methyl]pyrimidine-2,4-diamine], in data set [2] (Sus scrofa, PAE cells), the half-inhibitory concentration (IC50) is 1.54e-12 M. The cytotoxicity in data set [4] is 6.75%.
The matching figures for `CC1(C)N=C(N)N=C(N)N1c1cccc(OCc2cccc([N+](=O)[O-])c2)c1` [Compound 23, 6,6-dimethyl-1-[3-[(3-nitrophenyl)methoxy]-phenyl]-1,3,5-triazine-2,4-diamine chloride]: 1.21e-09 M and 7.02%.
Taken in the same sequence, the figures for `CCCC(c1cc(C(C)(C)C)c(O)cc1C)c1cc(C(C)(C)C)c(O)cc1C` [Compound 24, 2-tert-butyl-4-[1-(5-tert-butyl-4-hydroxy-2-methylphenyl)butyl]-5-methylphenol] were greater than 1e-06 M and 8.54%.
The matching figures for `Oc1ccc(Cl)cc1Cc1cc(Cl)cc(Cc2cc(Cl)ccc2O)c1O` [Compound 25, 4-chloro-2,6-bis[(5-chloro-2-hydroxyphenyl)methyl]phenol]: 2.27e-10 M and 9.57%.
Take `CN(C)CCC(=O)[C@@]1(O)CC[C@H]2[C@@H]3CC=C4C[C@@H](O)CC[C@]4(C)[C@H]3CC[C@@]21C` [Compound 27, 1-[(3S,8R,9S,10R,13S,14S,17R)-3,17-dihydroxy-10,13-dimethyl-1,2,3,4,7,8,9,11,12,14,15,16-dodecahydrocyclopenta[a]phenanthren-17-yl]-3-(dimethylamino)propan-1-one chloride]: in data set [2] (Sus scrofa, PAE cells), the IC50 was greater than 1e-06 M. The cytotoxicity in data set [4] stood at 7.9%.
As for `Nc1nc(N)c(-c2cccc(C(F)(F)F)c2)c(Cc2cccc(C(F)(F)F)c2)n1` [Compound 28, 5-[3-(trifluoromethyl)phenyl]-6-[[3-(trifluoromethyl)phenyl]methyl] pyrimidine-2,4-diamine], the IC50 in data set [2] (Sus scrofa, PAE cells) was 7.41e-11 M. In data set [4], the cytotoxicity was 8.65%.
As for `O=C(c1ccc([N+](=O)[O-])cc1)C(Br)C(Br)c1ccnc2ccccc12` (stereo not shown) [Compound 29, 2,3-dibromo-1-(4-nitrophenyl)-3-quinolin-4-ylpropan-1-one], the half-inhibitory concentration (IC50) in data set [2] (Sus scrofa, PAE cells) is greater than 1e-06 M. Besides, in data set [4], the cytotoxicity is 9.78%.
Take `Cc1c2cc[n+](CCN3CCCCC3)cc2c(C)c2c1[nH]c1ccc(O)cc12` [Compound 30, 5,11-dimethyl-2-(2-piperidin-1-ylethyl)-6H-pyrido[4,3-b]carbazol-2-ium-9-ol acetate]: the IC50 in data set [2] (Sus scrofa, PAE) turned out to be 9.27e-10 M. The cytotoxicity in data set [4] was determined as 8.81%.
For the compound `CC(=O)O/C(=C1\C[C@H]2[C@@H]3CC=C4C[C@@H](OC(C)=O)CC[C@]4(C)[C@H]3CC[C@]2(C)C1=O)C(F)(F)F` [Compound 31, [(3S,8R,9S,10R,13S,14S,16E)-16-(1-acetyloxy-2,2,2-trifluoroethylidene)-10,13-dimethyl-17-oxo-2,3,4,7,8,9,11,12,14,15-decahydro-1H-cyclopenta[a]phenanthren-3-yl]acetate], in data set [2] (Sus scrofa, PAE cells), the IC50 was 0.000506 M. The compound further showed a cytotoxicity in data set [4] of 7.62%.
With `CS(=O)(=O)Nc1ccc(Nc2c3ccccc3nc3ccccc23)cc1` [Compound 32, N-[4-(acridin-9-ylamino)phenyl]-methanesulfonamide; methanesulfonic acid], the IC50 in data set [2] (Sus scrofa, PAE cells) is greater than 1e-06 M. Besides, the cytotoxicity in data set [4] stood at 6.82%.
The matching figures for `Cc1cc(Cc2cc(C)cc(C(C)(C)C)c2O)c(O)c(Cc2cc(C)cc(C(C)(C)C)c2O)c1` [Compound 33, 2-tert-butyl-6-[[3-[(3-tert-butyl-2-hydroxy-5-methylphenyl)methyl]-2-hydroxy-5-methylphenyl]methyl]-4-methylphenol]: 2.8e-10 M and 7.44%.
`CCC1(OC(=O)CN)C(=O)OCc2c1cc1n(c2=O)Cc2cc3ccccc3nc2-1` (stereo not shown) [Compound 34, 4-Ethyl-3,14-dioxo-3,4,12,14-tetrahydro-1H-pyrano[3′,4′:6,7]indolizino[1,2-b]quinolin-4-yl aminoacetate hydrochloride]: the IC50 in data set [2] (Sus scrofa, PAE) is 9.92e-12 M. The cytotoxicity in data set [4] turned out to be 10.2%.
For the compound `COc1cccc2c(O)c3c(c(N)c12)C(=O)C1=C(C[C@@](O)(C(C)=O)C[C@@H]1OC1CC(N)C(O)C(C)O1)C3=O` (stereo partly drawn) [Compound 35, (1S,3S)-3-acetyl-11-amino-1-(4-amino-5-hydroxy-6-methyloxan-2-yl)oxy-3,6-dihydroxy-10-methoxy-2,4-dihydro-1H-tetracene-5,12-dione hydrochloride], the IC50 in data set [2] (Sus scrofa, PAE cells) is 2.41e-11 M. Moreover, the cytotoxicity in data set [4] stood at 7.98%.
Take `CCC(=O)OCN1C(=O)C=CC1=O` [Compound 39, (2,5-dioxopyrrol-1-yl)methyl propanoate]: in data set [5], the “RTK inhibitory activity (in words)” value is on record as “showed RTK inhibitory activity”. In addition, the “type of inhibition (endothelial cell growth and/or tube formation)” value in data set [3] (1 μM) is “tube formation”. The compound further had a cytotoxicity in data set [4] of 8.54%.
Consider `COc1cc2cc(c1Cl)N(C)C(=O)CC(OC(=O)C(C)C)C1(C)OC1C(C)C1CC(O)(NC(=O)O1)C(OC)/C=C/C=C(\C)C2` (stereo not shown) [Compound 56, Maytansinol isobutyrate or 4,24-Dioxa-9,22-diazatetracyclo[19.3.1.110,14.03,5] hexacosane, maytansine deriv.], for which, in data set [3], the “type of inhibition (endothelial cell growth and/or tube formation)” value was “tube formation”. In data set [4], this compound had a cytotoxicity of 7.52%.
`OC(c1cc(-c2ccccc2)nc2c1ccc1ccccc12)C1CCCCN1` (stereo not shown) [Compound 66, (2-phenylbenzo[h]quinolin-4-yl)-piperidin-2-ylmethanol]: in data set [2] (Sus scrofa, PAE cells), the IC50 is 4.12e-10 M. This compound yielded a cytotoxicity in data set [4] of 13.1%.
Regarding “azidobenzene; 1H-indene; prop-1-en-2- ylbenzene [Compound 49]”, the “Apoptosis PAE (RFU)” value in data set [1] was determined as 1.235 RFU. The Bioactivity in data set [3] was found to be 2.
